Reference: patent US20130130306A1, “ZN (II) BASED COLORIMETRIC SENSOR AND PROCESS FOR THE PREPARATION THEREOF” (COUNCIL OF SCIENTIFIC & INDUSTRIAL RESEARCH, priority 2010, published 2013)
“Also recorded” adds a separate entry of the source.

Experiments:
[1] = Spectrophotometric titration, inclusion complex formation with α-CD; assay type: binding; conditions: α-CD 0-2.3 mM
Protocol: Preliminary spectral studies reveal that absorption maxima for L.Zn (Scheme 1, Formula 1A) (463 nm) tend to shift to shorter wavelength (458 nm) on addition of aqueous solution of α-CD (0-2.3 mM) in excess to the […] solution of L.Zn (Scheme 1, Formula 1A). Formation of host-guest type inclusion complex on addition of trans-1,2-bis-(4-pyridyl)ethylene, 4,4′-azopyridine (AZP) and some related bipyridine/biphenyl molecules in α-CD is reported by several researcher (Shukla, A. D.; Bajaj, H. C.; Das, A. Angew. Chem. Int. Ed. 2001, 40, 446.; Shukla, A. D.; Bajaj, H. C., Das, A. Nat. Acad. Science, 2002, 114, 431.; Beer, A. J.; Macartney, D. H. Inorg. Chem. 2000, 39, 1410.; Macartney, D. H.; Waddling, C. A.; Inorg. Chem. 1994, 33, 5912.; Philip, D.; Stoddart, J. F. Angew. Chem. Int. Ed. 1996, 35, 1154). It is also reported that inclusion in these compounds in the CD cavity influences the HOMO-LUMO energy gap and there by the absorption spectral bands-though the perturbation of the energy levels are not reported to be an appreciable one. Thus, in this present study, the observed shift of 5 nm could be attributed to the inclusion phenomena and the formation of a pseudo-rotaxane complex.
General formula that was used for calculating the binding constants from UV-vis titrations is given below:
Binding Constant,K=[L.Zn.CD]/{[L.Zn]free[CD]free} (5) […]

[2] = Solubility in water without and with α-cyclodextrin; assay type: physicochemical
Protocol: Solubility of L.Zn (Scheme 1, Formula 1A) in water is limited (0.0448 gL^−1). However, this could be enhanced in presence of α-cyclodextrin (c-CD). 2.3 mg of L.Zn (Scheme 1, Formula 1A) was dissolved in 5 mL of double distilled water and stirred at 25 to 35° C. for 1 hour. […] Similar experiment was repeated in presence of α-CD. In this case 14.2 mg of α-CD was dissolved in 5 mL of double distilled water containing 2.913 mg of L.Zn (Scheme 1, Formula 1A) and this solution was stirred at 25° C. for 1 hour; while a solution with little suspended solid was obtained. This was filtered using G-4 gooch crucible. Filtrate was collected and optical density (O.D.) of the filtrate was monitored at 458 nm. Considering the complete formation of the inclusion complex (pseudorotaxane form), concentration was evaluated based on the known εLZn.α-CD value and the O.D. at 458 nm. […] L.Zn (Scheme 1, Formula 1A) present in aqueous solution in the pseudorotaxane form is being represented as L.Zn.CD in Scheme 2.

[3] = system: living microbes (eukaryotes and prokaryotes); experiment: Toxicity and viability of cells after staining; assay type: cell-based
Excerpt: We also explored the possibility of using L.Zn/L.Zn.α-CD as the staining agent for prokaryotes (Gram +ve and Gram −ve bacterial cells). […] As expected stained cells for Gram +ve bacteria appeared longer as compared to those of the stained Gram −ve bacteria. The difference in the staining intensity for two different bacteria with the L.Zn.α-CD (Scheme 2) could be much better understood after going into the depth of cell biology of each bacterial cells and the detailed biochemistry involved while staining; besides, difference in cell structure and cell wall composition of the respective bacteria. […] Changes on the cell surfaces on binding of the dye, L.Zn (Scheme 1, Formula 1A) were also evident from the SEM images recorded for Gram −ve and Gram +ve bacteria, in absence and presence of staining agent (FIGS. 11C to 11F). Difference in the contrasts in the SEM images of the sample surfaces also signifies the non-homogeneous chemical nature of the sample surface. Relatively brighter cell exterior for Gram −ve bacteria, as compared to the Gram +ve one indicates the accumulation of higher negative charge on the extra-cellular surface. […] The growth profile of Eukaryotic Yeast cells (Saccharomyces cerevisiae) and Prokaryotic bacterial cells ([…]) in an aqueous culture medium in absence and presence of L.Zn (Scheme 1, Formula 1A) are shown in FIG. 12. Change in absorbance (at λmax=600 nm) vs time (t) was plotted up to 30 h; as no appreciable change in growth was observed thereafter. […] FIGS. 12a, 12c and 12e show the actual growth curve of Saccharomyces cerevisiae, Pseudomonas fluorescence and Bacillus megaterium, respectively with time. While, FIGS. 12b, 12d and 12f show relative build up of ATP in cytoplasm with time for Saccharomyces cerevisiae, Pseudomonas fluorescence and Bacillus megaterium, respectively in presence of L.Zn (Scheme 1, Formula 1A) (D1) and L.Zn.α-CD (Scheme 2) (D2). […]

## CN(C)c1ccc(N=Nc2ccc(S(=O)(=O)N3CCCNCCNCCCNCC3)cc2)cc1.O=[N+]([O-])[O-].O=[N+]([O-])[O-].[Zn+2] [L.Zn]
[1]; aqueous solution
  association constant of inclusion complex with α-CD: 255 (+15) M^−1
[1]; aqueous solution (as printed in b187)
  association constant of inclusion complex with α-CD: 255 (±15) M^1
[2]; 14.2 mg α-CD in 5 mL double distilled water, 25° C., O.D. at 458 nm
  L.Zn present in solution in presence of α-CD: 0.34 g/L
[2]; double distilled water, stirred 1 hour, from optical density of filtrate
  solubility in water: 0.0448 gL^−1
[2]; present reagent
  solubility in water: completely soluble in water
[2]; water, with versus without α-CD
  increase in solubility in presence of α-CD: ~7.5 fold
[3]; after staining
  growth of stained cells in their respective media: stained cells were found to grow in their respective media
[3]; eukaryotes and prokaryotes, cell proliferation and growth after staining
  toxicity to living cells: non-toxic; also recorded: non toxic
[3]; light microscope, until 3 h
  viability of stained cells, hanging drop in concavity slide: cell growth, cell division, as well as their motility could be observed
